{"source": "ChEMBL document CHEMBL2074090", "about": "“Characterization of the transport properties of cloned rat multidrug resistance-associated protein 3 (MRP3)” (J Biol Chem, 1999)", "molecules": {"B1": {"name": "ATP-binding cassette sub-family C member 3 (Rattus norvegicus) (protein)", "chain": "MDRLCGSGELGSKFWDSNLTVYTNTPDLTPCFQNSLLAWVPCIYLWAALPCYLFYLRHHRLGYIVLSCLSRLKTALGVLLWCISWVDLFYSFHGLVHGSSPAPVFFITPLLVGITMLLATLLIQYERLRGVRSSGVLIIFWLLCVICAIIPFRSKILLALAEGKILDPFRFTTFYIYFALVLCAFILSCFQEKPPLFSPENLDTNPCPEASAGFFSRLSFWWFTKLAILGYRRPLEDSDLWSLSEEDCSHKVVQRLLEAWQKQQTQASGPQTAALEPKIAGEDEVLLKARPKTKKPSFLRALVRTFTSSLLMGACFKLIQDLSPSSTHSCSASSSGLFRPHGPYWWGFLLAGLMFVSSTMQTLILHQHYHCIFVMALRIRTAIIGVIYRKALTITNSVKREYTVGEMVNLMSVDAQRFMDVSPFINLLWSAPLQVILAIYFLWQILGPSALAGVAVIVLLIPLNGAVSMKMKTYQVQQMKFKDSRIKLMSEILNGIKVLKLYAWEPTFLEQVEGIRQGELQLLRKGAYLQAISTFIWVCTPFMVTLITLGVYVCVDKNNVLDAEKAFVSLSLFNILKIPLNLLPQLISGMTQTSVSLKRIQDFLNQDELDPQCVERKTISPGRAITIHNGTFSWSKDLPPTLHSINIQIPKGALVAVVGPVGCGKSSLVSALLGEMEKLEGAVSVKGSVAYVPQQAWIQNCTLQENVLFGQPMNPKRYQQALETCALLADLDVLPGGDQTEIGEKGINLSGGQRQRVSLARAVYSDANIFLLDDPLSAVDSHVAKHIFDQVIGPEGVLAGKTRVLVTHGISFLPQTDFIIVLADGQITEMGHYSELLQHDGSFANFLRNYAPDENQEANEGVLQHANEEVLLLEDTLSTHTDLTDTEPAIYEVRKQFMREMSSLSSEGEGQNRPVLKRYTSSLEKEVPATQTKETGALIKEEIAETGNVKLSVYWDYAKSVGLCTTLFICLLYAGQNAVAIGANVWLSAWTNDVEEHGQQNNTSVRLGVYATLGILQGLLVMLSAFTMVVGAIQAARLLHTALLHNQIRAPQSFFDTTPSGRILNRFSKDIYVIHEVLAPTILMLFNSFYTSISTIVVIVASTPLFCVVVLPLAVFYGFVQRFYVATSRQLKRLESVSRSPIFSHFSETVTGTSVIRAYGRVQDFKVLSDAKVDSNQKTTYPYIASNRWLGVHVEFVGNCVVLFSALFAVIGRNSLNPGLVGLSVSYALQVTLSLNWMIRTLSDLESNIIAVERVKEYSKTETEAPWVLESNRAPEGWPRSGVVEFRNYSVRYRPGLELVLKNLTLHVQGGEKVGIVGRTGAGKSSMTLCLFRILEAAEGEIFIDGLNVAHIGLHDLRSQLTIIPQDPILFSGTLRMNLDPFGRYSDEDIWRTLELSHLSAFVSSQPTGLDFQCSEGGDNLSVGQRQLVCLARALLRKSRVLVLDEATAAIDLETDDLIQGTIRTQFEDCTVLTIAHRLNTIMDYNRVLVLDKGVVAEFDSPVNLIAAGGIFYGMAKDAGLA"}}, "key": {"[1]": {"target": "T1, MRP3 (ABCC3, ATP-binding cassette sub-family C member 3) (Rattus norvegicus, UniProt O88563)", "assay": "TP_TRANSPORTER: inhibition of E217betaG uptake (E217betaG: 0.1 uM, alpha-naphthyl beta-D-glucuronide: 200 uM) in membrane vesicle from Mrp3-expressing LLC-PK1 cells", "assay_type": "functional, cell membranes", "parameters": "scale not given: the % may be the effect or the level left", "details": "pig, membrane vesicles from Mrp3-expressing LLC-PK1 cells, probe E217betaG; read-out: Activity"}, "[2]": {"target": "T1, MRP3 (ABCC3, ATP-binding cassette sub-family C member 3)", "assay": "TP_TRANSPORTER: inhibition of E217betaG uptake (E217betaG: 0.1 uM, E3040 glucuronide: 50 uM) in membrane vesicles from MRP3-expressing HeLa cells", "assay_type": "functional, cell membranes, Membrane vesicle", "parameters": "scale not given: the % may be the effect or the level left", "details": "human, probe E217betaG, read-out: Activity"}, "[3]": {"target": "ATP-binding cassette sub-family C member 3 (Rattus norvegicus, UniProt O88563)", "assay": "(§1) TP_TRANSPORTER: uptake in membrane vesicle from Mrp3-expressing LLC-PK1 cells", "assay_type": "functional, cell membranes", "details": "pig"}, "[4]": {"target": "T1, MRP3 (ABCC3, ATP-binding cassette sub-family C member 3)", "assay": "TP_TRANSPORTER: inhibition of E217betaG uptake (E217betaG: 0.1 uM, E1S: 500 uM) in membrane vesicle from Mrp3-expressing LLC-PK1 cells", "assay_type": "functional, cell membranes", "parameters": "scale not given: the % may be the effect or the level left", "details": "pig, membrane vesicles from Mrp3-expressing LLC-PK1 cells, probe E217betaG; read-out: Activity"}, "[5]": {"target": "T1, MRP3 (ABCC3, ATP-binding cassette sub-family C member 3)", "assay": "TP_TRANSPORTER: inhibition of E217betaG uptake (E217betaG: 0.1 uM, LTC4: 2.5 uM) in membrane vesicle from Mrp3-expressing LLC-PK1 cells", "assay_type": "functional, cell membranes", "parameters": "scale not given: the % may be the effect or the level left", "details": "pig, membrane vesicles from Mrp3-expressing LLC-PK1 cells, probe E217betaG; read-out: Activity"}, "[6]": {"target": "T1, MRP3 (ABCC3, ATP-binding cassette sub-family C member 3)", "assay": "TP_TRANSPORTER: inhibition of E217betaG uptake (E217betaG: 0.1 uM, MTX: 1000 uM) in membrane vesicles from MRP3-expressing LLC-PK1 cells", "assay_type": "functional, cell membranes, Membrane vesicle", "parameters": "scale not given: the % may be the effect or the level left", "details": "pig, probe E217betaG, read-out: Activity"}, "[7]": {"target": "T1, MRP3 (ABCC3, ATP-binding cassette sub-family C member 3)", "assay": "TP_TRANSPORTER: inhibition of E217betaG uptake (E217betaG: 0.1 uM, MTX: 1000 uM) in membrane vesicles from MRP3-expressing HeLa cells", "assay_type": "functional, cell membranes, Membrane vesicle", "parameters": "scale not given: the % may be the effect or the level left", "details": "human, probe E217betaG, read-out: Activity"}, "[8]": {"target": "T1, MRP3 (ABCC3, ATP-binding cassette sub-family C member 3)", "assay": "TP_TRANSPORTER: inhibition of E217betaG uptake (E217betaG: 0.1 uM, DNP-SG: 500 uM) in membrane vesicles from MRP3-expressing LLC-PK1 cells", "assay_type": "functional, cell membranes, Membrane vesicle", "parameters": "scale not given: the % may be the effect or the level left", "details": "pig, probe E217betaG, read-out: Activity"}, "[9]": {"target": "T1, MRP3 (ABCC3, ATP-binding cassette sub-family C member 3)", "assay": "TP_TRANSPORTER: inhibition of E217betaG uptake (E217betaG: 0.1 uM, 4-methylumbeliferone glucuronide: 500 uM) in membrane vesicle from Mrp3-expressing LLC-PK1 cells", "assay_type": "functional, cell membranes", "parameters": "scale not given: the % may be the effect or the level left", "details": "pig, membrane vesicles from Mrp3-expressing LLC-PK1 cells, probe E217betaG; read-out: Activity"}, "[10]": {"substrate": "C[C@]12CC[C@@H]3c4ccc(O)cc4CC[C@H]3[C@@H]1CC[C@@H]2O[C@@H]1O[C@H](C(=O)O)[C@@H](O)[C@H](O)[C@H]1O", "assay": "as §1", "assay_type": "functional, cell membranes"}}, "data": [{"molecule": "O=C(O)[C@H]1O[C@@H](Oc2cccc3ccccc23)[C@H](O)[C@@H](O)[C@@H]1O", "values": [{"measurement": "activity at 200 µM", "setting": "[1]", "result": 23.6, "unit": "%"}]}, {"molecule": "CNc1nc2c(Cc3cccnc3)c(C)c(O[C@@H]3O[C@H](C(=O)O)[C@@H](O)[C@H](O)[C@H]3O)c(C)c2s1", "note": "[E3040 GLUCURONIDE]", "values": [{"measurement": "activity at 50 µM", "setting": "[2]", "result": 11.1, "unit": "%"}, {"measurement": "Activity", "setting": "[3]", "result": "substrate [+]"}]}, {"molecule": "C[C@]12CC[C@@H]3c4ccc(OS(=O)(=O)O)cc4CC[C@H]3[C@@H]1CCC2=O", "note": "[ESTRONE SULFURIC ACID]", "values": [{"measurement": "activity at 500 µM", "setting": "[4]", "result": 33.3, "unit": "%"}]}, {"molecule": "CCCCC/C=C\\C\\C=C/C=C/C=C/[C@@H](SC[C@@H](NC(=O)CC[C@H](N)C(=O)O)C(=O)NCC(=O)O)[C@@H](O)CCCC(=O)O", "note": "[LEUKOTRIEN C4]", "values": [{"measurement": "activity at 2.5 µM", "setting": "[5]", "result": 57, "unit": "%"}]}, {"molecule": "CN(Cc1cnc2nc(N)nc(N)c2n1)c1ccc(C(=O)N[C@@H](CCC(=O)O)C(=O)O)cc1", "note": "[METHOTREXATE]", "values": [{"measurement": "activity at 1000 µM", "setting": "[6]", "result": 10.7, "unit": "%"}, {"measurement": "Activity", "setting": "[3]", "result": "substrate [+]"}, {"measurement": "activity at 1000 µM", "setting": "[7]", "result": 18.5, "unit": "%"}]}, {"molecule": "N[C@@H](CCC(=O)N[C@H](CSc1ccc([N+](=O)[O-])cc1[N+](=O)[O-])C(=O)NCC(=O)O)C(=O)O", "values": [{"measurement": "activity at 500 µM", "setting": "[8]", "result": 14.4, "unit": "%"}]}, {"molecule": "O=C(O)[C@H]1O[C@@H](OCc2cc(=O)oc3cc(O)ccc23)[C@H](O)[C@@H](O)[C@@H]1O", "values": [{"measurement": "activity at 500 µM", "setting": "[9]", "result": 14.1, "unit": "%"}]}, {"molecule": "B1", "values": [{"measurement": "Km", "setting": "[10]", "result": 110, "unit": "µM"}]}]}
